Measurements taken from patent publication EP4653444A1, “FUSED TRICYCLIC COMPOUND AS KINASE INHIBITOR” (Hangzhou Innogate Pharma Co., Ltd., priority 2023, dated 2024).
Read-outs that look alike come from different tables or passages of the source.

Legend:
ALK kinase = ALK kinase (Homo sapiens, UniProt Q9UM73); test: ALK kinase activity inhibition assay (HTRF); format: biochemical
Procedure: Measure compound inhibitory activity against ALK kinase using HTRF Assay.1× kinase reaction buffer was prepared. The kinase reaction conditions were as follows: kinase concentration at 0.04 ng/µL; ATP working concentration in substrate mixture solution at 2 µM; final substrate concentration at 1 µM. Compounds were serially diluted in DMSO and shaken on an orbital shaker for 20 minutes. 2× kinase solution was prepared using 1× kinase reaction buffer. 1 µL of compound solution was transferred to a 384-well plate. 2 µL of kinase solution was added to each well of the reaction plate. The plate was sealed with adhesive film, centrifuged at 1000 rpm for 60 seconds, and incubated at 25°C for 10 minutes. 2.5× ATP/substrate mixture was prepared using 1× kinase reaction buffer. 2 µL of 2.5× ATP/substrate mixture was added to the reaction plate. The plate was sealed with adhesive film, centrifuged at 1000 rpm for 60 seconds, and incubated at 25°C for 50 minutes. 4× Sa-XL 665 solution was prepared using HTRF detection buffer. 5 µL of Sa-XL 665 solution and 5 µL of TK-antibody-Cryptate solution were added to each well. The plate was centrifuged at 1000 rpm for 60 seconds and incubated at 25°C for 60 minutes. Fluorescence signals were measured at 615 nm (Cryptate) and 665 nm (XL665) using a BMG microplate reader. The ratio for each well was calculated as: Ratio_665/615nm. The inhibition percentage was calculated as follows: % inhibition = 100% - [(Compound Ratio - Positive Control Ratio)/(Negative Control Ratio - Positive Control Ratio)] × 100%. The IC50 values (half-maximal inhibitory concentration) of compounds were determined by fitting the data to the following nonlinear regression equation using GraphPad Prism 7.0 software: Y = Bottom + (Top - Bottom)/(1 + 10^(([…] - X) × Hill Slope)) where: X = log(compound concentration), Y = % inhibition.

FLT3 = biological target: T1, FLT3 (Homo sapiens, UniProt P36888); test: FLT3 kinase activity inhibition assay (Mobility shift assay); format: biochemical
T1 sequence (P36888 27-993): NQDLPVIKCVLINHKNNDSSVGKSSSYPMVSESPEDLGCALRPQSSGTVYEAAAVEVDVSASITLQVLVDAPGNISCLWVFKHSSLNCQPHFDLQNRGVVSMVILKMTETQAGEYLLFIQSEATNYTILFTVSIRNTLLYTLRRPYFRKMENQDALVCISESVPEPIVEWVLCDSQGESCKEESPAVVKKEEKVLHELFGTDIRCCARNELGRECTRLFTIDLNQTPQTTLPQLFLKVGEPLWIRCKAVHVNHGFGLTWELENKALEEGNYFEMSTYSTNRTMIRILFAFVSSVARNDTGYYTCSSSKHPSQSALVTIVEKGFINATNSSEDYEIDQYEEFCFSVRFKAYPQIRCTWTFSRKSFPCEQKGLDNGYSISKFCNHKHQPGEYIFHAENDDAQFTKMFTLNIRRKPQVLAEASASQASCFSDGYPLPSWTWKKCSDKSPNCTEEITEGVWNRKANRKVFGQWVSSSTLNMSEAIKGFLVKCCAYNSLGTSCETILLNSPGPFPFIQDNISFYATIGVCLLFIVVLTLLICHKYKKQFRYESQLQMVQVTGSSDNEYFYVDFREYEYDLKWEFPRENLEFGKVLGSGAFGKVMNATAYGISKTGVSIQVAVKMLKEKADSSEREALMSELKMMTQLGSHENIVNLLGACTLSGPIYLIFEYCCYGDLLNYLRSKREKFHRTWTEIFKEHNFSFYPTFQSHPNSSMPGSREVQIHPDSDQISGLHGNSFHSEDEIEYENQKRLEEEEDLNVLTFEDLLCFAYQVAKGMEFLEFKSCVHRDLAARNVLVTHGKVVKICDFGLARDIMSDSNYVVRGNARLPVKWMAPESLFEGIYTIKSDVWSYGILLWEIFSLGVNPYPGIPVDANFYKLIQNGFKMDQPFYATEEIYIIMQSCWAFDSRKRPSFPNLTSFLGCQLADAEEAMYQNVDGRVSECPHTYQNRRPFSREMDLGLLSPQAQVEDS
Procedure: Testing compound inhibitory activity against FLT3 and AXL kinases using Mobility shift assay. Compounds were dissolved in 100% DMSO to prepare 10 mM stock solutions. Prepare 1× Kinase Buffer. Test compounds were serially diluted in 5-fold gradients, and 250 nL of 100× final concentration compounds were transferred to destination plate 3573 using an Echo 550 liquid handler. A 2.5× final concentration kinase solution was prepared in 1× Kinase Buffer. Then, 10 µL of the 2.5× kinase solution was added to both compound wells and positive control wells, while 10 µL of 1× Kinase Buffer was added to negative control wells. The plate was centrifuged at 1000 rpm for 30 seconds, mixed by orbital shaking, and incubated at room temperature for 10 minutes. A 5/3× final concentration mixture of ATP and Kinase Substrate 25 was prepared in 1× Kinase Buffer. The reaction was initiated by adding 15 µL of the 5/3× ATP/substrate mixture. The 384-well plate was centrifuged at 1000 rpm for 30 seconds, mixed by shaking, and incubated at room temperature for 120 minutes. The kinase reaction was terminated by adding 30 µL stop solution, followed by centrifugation at 1000 rpm for 30 seconds and mixing. Conversion rates were measured using a Caliper EZ Reader. %Inhibition = (Conversion%_max - Conversion%_sample)/(Conversion%_max - Conversion%_min) × 100. Where: Conversion%_sample: Conversion rate reading of test samples; Conversion%_min: Mean value of negative control wells (representing conversion rate without enzyme activity); Conversion%_max: Mean value of positive control wells (representing conversion rate without compound inhibition). Dose-response curves were plotted with log(concentration) as the X-axis and percentage inhibition as the Y-axis. Curve fitting was performed using GraphPad Prism 5 software with the "log(inhibitor) vs. response - Variable slope" model to derive IC50 values for each compound's enzyme inhibitory activity. The fitting formula was: Y = Bottom + (Top - Bottom)/(1 + 10^((LogIC50 - X) × HillSlope)).

[1] = Table 4, ATP 2 µM, read-out: ALK (IC50)

Chain of ALK kinase (Q9UM73 19-1620): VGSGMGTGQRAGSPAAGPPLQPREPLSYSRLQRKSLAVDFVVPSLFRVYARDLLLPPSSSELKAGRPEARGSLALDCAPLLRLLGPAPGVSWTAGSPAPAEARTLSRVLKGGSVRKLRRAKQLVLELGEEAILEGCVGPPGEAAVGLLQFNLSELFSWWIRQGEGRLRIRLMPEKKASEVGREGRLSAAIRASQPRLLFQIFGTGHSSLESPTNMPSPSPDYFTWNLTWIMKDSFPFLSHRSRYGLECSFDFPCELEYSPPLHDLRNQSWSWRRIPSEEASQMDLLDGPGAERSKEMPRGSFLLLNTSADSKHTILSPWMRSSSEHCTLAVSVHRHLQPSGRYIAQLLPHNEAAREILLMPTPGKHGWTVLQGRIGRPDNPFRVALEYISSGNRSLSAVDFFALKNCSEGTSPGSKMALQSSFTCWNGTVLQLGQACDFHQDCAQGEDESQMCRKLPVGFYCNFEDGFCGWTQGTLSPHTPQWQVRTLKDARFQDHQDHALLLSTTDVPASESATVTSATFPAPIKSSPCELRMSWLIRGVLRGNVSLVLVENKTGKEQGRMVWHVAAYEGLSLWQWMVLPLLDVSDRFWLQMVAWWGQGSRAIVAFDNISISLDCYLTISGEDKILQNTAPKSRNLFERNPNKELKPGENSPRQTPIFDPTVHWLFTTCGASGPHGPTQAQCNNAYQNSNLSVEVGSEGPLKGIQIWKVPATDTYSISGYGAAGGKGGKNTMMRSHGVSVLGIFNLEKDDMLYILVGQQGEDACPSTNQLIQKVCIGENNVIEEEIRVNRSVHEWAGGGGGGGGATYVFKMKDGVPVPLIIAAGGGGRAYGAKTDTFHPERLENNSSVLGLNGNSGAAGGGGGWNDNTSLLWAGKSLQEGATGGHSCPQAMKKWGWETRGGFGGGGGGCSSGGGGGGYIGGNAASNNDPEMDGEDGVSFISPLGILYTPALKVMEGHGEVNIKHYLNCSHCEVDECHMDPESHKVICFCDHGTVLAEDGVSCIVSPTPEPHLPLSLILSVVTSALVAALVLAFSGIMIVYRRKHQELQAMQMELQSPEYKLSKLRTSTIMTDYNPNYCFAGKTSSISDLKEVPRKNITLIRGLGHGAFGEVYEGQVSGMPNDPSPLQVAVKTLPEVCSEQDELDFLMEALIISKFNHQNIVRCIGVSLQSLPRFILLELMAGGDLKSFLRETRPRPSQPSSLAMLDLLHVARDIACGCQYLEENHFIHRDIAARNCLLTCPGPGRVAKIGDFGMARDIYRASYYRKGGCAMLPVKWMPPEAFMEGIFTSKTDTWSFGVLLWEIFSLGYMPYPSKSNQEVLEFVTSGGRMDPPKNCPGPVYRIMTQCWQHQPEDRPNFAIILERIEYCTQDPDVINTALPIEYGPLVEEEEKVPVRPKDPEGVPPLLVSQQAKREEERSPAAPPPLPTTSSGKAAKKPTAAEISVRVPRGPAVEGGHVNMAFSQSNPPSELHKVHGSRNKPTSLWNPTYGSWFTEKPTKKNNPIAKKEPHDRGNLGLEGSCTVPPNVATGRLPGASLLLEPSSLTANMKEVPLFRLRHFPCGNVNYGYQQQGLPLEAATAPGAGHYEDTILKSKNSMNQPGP

| Compound | IC50 (ALK kinase; [1]) [nM] | IC50 (FLT3; Table 4, read-out: FLT3 (IC50)) [nM] | IC50 (ALK kinase) [nM] | IC50 (FLT3) [nM] | IC50 (FLT3; Table 3, read-out: FLT3 (IC50)) [nM] |
| --- | --- | --- | --- | --- | --- |
| CNC(=O)c1ccccc1Nc1cc(Nc2cc3c(cc2OC)N2CCN(C4CCN(C)CC4)C[C@H]2CO3)ncc1C(F)(F)F [Compound D2S] | < 15 | < 50 | – | – | – |
| CNC(=O)c1ccccc1Nc1cc(Nc2cc3c(cc2OC)N2CCN(C4CN(C)C4)C[C@H]2CO3)ncc1C(F)(F)F [Compound D4S] | < 15 | < 70 | – | – | – |
| CNC(=O)c1ccccc1Nc1cc(Nc2cc3c(cc2OC)N2CCN(C4CCN(C)CC4)C[C@@H]2CO3)ncc1C(F)(F)F [Compound D2R] | – | – | < 10 | < 20 | – |
| COc1cc2c(cc1Nc1ncc(Cl)c(Nc3ccccc3S(=O)(=O)C(C)C)n1)OC[C@@H]1CN(C3CCOCC3)CCN21 [Compound C1S] | – | – | – | – | < 30 |
| COc1cc2c(cc1Nc1ncc(Cl)c(Nc3ccccc3S(=O)(=O)C(C)C)n1)OC[C@@H]1CN(C3CCN(C)CC3)CCN21 [Compound C2S] | – | – | < 0.05 | < 30 | – |
